Patent publication US20240228460A1, “PROTEASE INHIBITORS AND METHODS OF MAKING SAME” (priority 2022, published 2024)
Where two headings read alike, the source gives them in different places.

Assays:
[1] = target: SARS-CoV-2 M^pro protease (Severe acute respiratory syndrome coronavirus 2 (2019-nCoV) (SARS-CoV-2), UniProt P0DTD1); experiment: Fluorogenic enzymatic assay, SARS-CoV-2 Mpro inhibition; type: biochemical; settings: quenched DABCYL/EDANS peptide substrate
[2] = target: cathepsin L (Homo sapiens (Human), UniProt P07711); experiment: Cathepsin L inhibition assay (Z-LR-AMC fluorogenic substrate); type: biochemical
cathepsin L, sequence (P07711 114-333): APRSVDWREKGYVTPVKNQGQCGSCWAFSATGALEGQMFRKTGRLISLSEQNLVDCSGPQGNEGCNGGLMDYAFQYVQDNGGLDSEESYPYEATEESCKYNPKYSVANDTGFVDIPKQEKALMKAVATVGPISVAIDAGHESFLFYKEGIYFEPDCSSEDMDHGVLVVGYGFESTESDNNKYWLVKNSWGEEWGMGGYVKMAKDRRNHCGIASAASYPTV
Description: Assays to evaluate the inhibition of cathepsin L contained 25 pM cathepsin L (RD systems: 952-CY-010), 5 uM Z-LR-AMC fluorogenic peptide substrate, 100 nL of test compound in 100% DMSO, in a total of 10 uL of 20 mM KPO4, pH 6.0, 150 mM NaCl, 0.005% Tween20, 5 mM DTT in black low volume 384-well plates. The production of AMC (7-amino-4-methylcoumarin) was followed at 5 min intervals at 355 nm excitation, 460 nm emission in an Envision microplate reader (PerkinElmer). Reaction rates were determined by linear regression of the resulting progress curves. Rates were normalized to % inhibition, where 0% is equal to the rate in the presence of enzyme, and 100% is equal to the rate in the absence of enzyme. Nonlinear regression fits of the data to a one-site dose response curve were performed using XLFit (IDBS). […]

[3] = target: SARS-CoV-2 M^pro (Severe acute respiratory syndrome coronavirus 2 (2019-nCoV) (SARS-CoV-2), UniProt P0DTD1); experiment: biochemical; settings: 20 nM M^pro, 10 uM substrate, 1 hr, HPLC product peak area; read-out: IC50 against SARS-CoV-2 M^pro, HPLC-confirmed
[4] = 25 pM cathepsin L, 5 uM Z-LR-AMC, pH 6.0, read-out: IC50 Cathepsin L

| Structure (SMILES) | IC50 [1] [µM] | IC50 [2, 4] [µM] | IC50 [3] [µM] | IC50 ([2]; positive control tested in parallel, read-out: IC50 cathepsin L (positive control)) [µM] |
| --- | --- | --- | --- | --- |
| O=C(NCC(NC(=O)c1cncc2[nH]ccc12)c1ccc2ccccc2c1)c1ccsc1 (stereo not drawn) [(107)] | 19.2 | – | – | – |
| Cc1cc[nH]c(=O)c1C(=O)NC[C@H](NC(=O)c1cncc2ccccc12)c1ccc2ccccc2c1 (single isomer, unassigned) [(102)] | 1.6 | 47.8 | – | – |
| Cc1cc[nH]c(=O)c1C(=O)NCC(NC(=O)c1cncc2ccccc12)c1ccc2ccccc2c1 (racemic) [(101), N-{2-[(2-hydroxy-4-methylpyridin-3-yl)formamido]-1-(naphthalen-2-yl)ethyl}isoquinoline-4-carboxamide] | 1.7 | > 100 | 5.4 | – |
| CC(C)C[C@H](NC(=O)OCc1ccccc1)C(=O)N[C@@H](CC1CCNC1=O)C(O)S(=O)(=O)O (stereo partly drawn) [GC-376, reference compound] | – | – | – | 0.002 |
| Cc1cc(C(=O)NC(CNC(=O)c2cccc3sncc23)c2ccc3ccccc3c2)cc(=O)[nH]1 (stereo not drawn) [(104)] | 47.8 | – | – | – |
| CC(=O)c1c(C)[nH]c(C(=O)N[C@H](CNC(=O)c2ccc(F)c3ccccc23)c2ccccc2)c1C [(108), (S)-4-acetyl-N-(2-(4-fluoro-1-naphthamido)-1-phenylethyl)-3,5-dimethyl-1H-pyrrole-2-carboxamide] | 32.2 | – | – | – |
| O=C(NCC(NC(=O)c1cncc2sccc12)c1ccc2ccccc2c1)c1cc(O)cc(O)c1 (stereo not drawn) [(105)] | 61.3 | – | – | – |
| O=C(NCC(NC(=O)C1COc2ccccc21)c1ccccc1)c1cccc2cnsc12 (stereo not drawn) [(106)] | 8.9 | 10.2 | 28 | – |
| Cc1cc[nH]c(=O)c1C(=O)NC[C@H](NC(=O)c1cncc2ccccc12)c1ccc2ccccc2c1 (single isomer, unassigned) [(103)] | 71.2 | 36.8 | – | – |
